{"source": "patent US5153219A", "about": "“Thiocarbamate sulfoxide composition for deterring ethanol ingestion” (Faiman; Morris D., priority 1991, dated 1992)", "key": {"[1]": {"system": "liver mitochondrial low Km ALDH", "settings": "Hart et al., cited from earlier work; for dose at which 50% ALDH inhibition (ID50) occurred: intraperitoneal (IP) administration"}, "[2]": {"test": "Plasma acetaldehyde determination after ethanol challenge", "assay_type": "in vivo, rat", "settings": "male rats", "experimental": "Rats maintained as described in Ex. 4, fasted for 18 hours, were given 10.3 mg/kg of the DETC-Me SO intraperitoneally, dissolved in polyethylene glycol 200 and then challenged eight hours later with a dose of ethanol (1 g/kg; 20% v/v) also administered intraperitoneally. The rats were anesthetized with phenobarbital 30 minutes after alcohol administration and blood was taken by aortic puncture, being drawn into a heparinized syringe. Plasma acetaldehyde was determined by the method of C.O.P. Eriksson et al., Anal. Biochem., 80, 116 (1977). Plasma concentrations were determined based on a standard curve obtained with known concentrations of acetaldehyde. Control rats were treated with 1 ml/kg of polyethylene glycol 200."}, "[3]": {"biological_target": "T1, rat liver mitochondrial low Km ALDH (Rattus norvegicus, UniProt P11884)", "T1 construct": "Mitochondria were isolated from the liver of untreated rats; from tissue; host or cells: liver mitochondria of male Sprague-Dawley derived rats", "T1 sequence (P11884 20-519)": "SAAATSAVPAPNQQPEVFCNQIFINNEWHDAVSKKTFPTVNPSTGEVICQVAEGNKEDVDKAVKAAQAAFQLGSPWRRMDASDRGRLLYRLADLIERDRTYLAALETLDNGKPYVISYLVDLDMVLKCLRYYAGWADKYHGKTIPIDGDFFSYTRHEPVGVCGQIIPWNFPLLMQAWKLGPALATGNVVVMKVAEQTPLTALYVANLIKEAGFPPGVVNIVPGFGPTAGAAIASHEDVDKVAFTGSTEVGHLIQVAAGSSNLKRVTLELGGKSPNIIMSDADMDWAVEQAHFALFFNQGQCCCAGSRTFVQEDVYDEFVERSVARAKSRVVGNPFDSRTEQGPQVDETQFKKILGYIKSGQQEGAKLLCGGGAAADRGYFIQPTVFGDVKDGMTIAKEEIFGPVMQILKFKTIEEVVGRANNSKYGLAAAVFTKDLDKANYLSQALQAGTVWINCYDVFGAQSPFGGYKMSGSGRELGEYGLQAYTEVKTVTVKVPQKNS", "test": "Liver aldehyde dehydrogenase determination in vivo after dosing rats", "settings": "for in vivo ALDH inhibition relative to comparators (in words): versus DETC-Me, disulfiram or other disulfiram metabolites; for ED50: rat, 8 h, read-out: dose required to inhibit 50% of the low Km ALDH", "experimental": "1. Drug Doses. Doses of DETC-Me SO studied were 1.3 mg/kg, 2.6 mg/kg, 5.2 mg/kg, 10.3 mg/kg and 20.6 mg/kg.\n2. Animals. Male Sprague Dawley derived rats weighing 200-400 g were used. The rats were bred from a resident colony maintained in the Animals Care Unit at the University of Kansas. Rats were maintained on a 12-hour light-dark cycle with access to food and water ad lib until the night before an experiment, at which time food was removed. Animals were fasted for 12 hours prior to drug administration.\n3. Timing. In these in vivo studies, rats were fasted 12 hours before beginning the experiment. All experiments were carried out in the morning. Rats were treated with the doses of DETC-Me SO or DETC-Me described above, which were dissolved in polyethylene glycol 200. Eight hours later, the rats were anesthetized with carbon dioxide and then decapitated. The liver was quickly removed and the low Km aldehyde dehydrogenase determined. Each data point on FIG. 4 represents an average of four rats. Control rats were treated with […] only, and each control data point also represents an average of four rats.\n4. Aldehyde Dehydrogenase Determination. The liver from drug-treated and control rats was homogenized in 0.25M sucrose and differential centrifugation was carried out to isolate the mitochondrial fraction. The mitochondria were solubilized with sodium deoxycholate, and mitochondrial low Km and total (high and low) aldehyde dehydrogenase activity determined by the method of S.O.C. Tottmar et al., cited above."}, "[4]": {"biological_target": "T1, rat liver mitochondrial low Km ALDH", "test": "In vitro inhibition of rat liver mitochondrial low Km ALDH (isolated mitochondria incubation)", "assay_type": "biochemical", "experimental": "1. Drug Concentration. Concentrations of DETC-Me sulfoxide (\"DETC-Me SO\") studied were 0.2 μM, 2.0 μM, 20 μM and 200 μM. Concentrations of DDTC-Me SO studied were 0.5 μM, 2.5 μM, 10 μM, 25 μM, 50 μM and 100 μM.\n2. Animal Liver Preparation. Male Sprague-Dawley derived rats weighing 200-400 g were anesthetized with carbon dioxide and then decapitated. The livers from untreated rats were homogenized in 0.25M sucrose and differential centrifugation carried out to isolate the mitochondrial fraction. The mitochodria were solubilized with sodium deoxycholate, and mitochondrial low Km ALDH activity determined by the method of S.O.C. Tottmar et al., Biochem. J., 135, 577 (1973).\n3. In Vitro Incubation. Mitochondria were isolated from the liver of untreated rats as described in section (2) and resuspended in 0.1M phosphate buffer (pH=7.4). Incubations contained 2 mg of mitochondrial protein, to which was added DETC-Me SO or DDTC-Me SO in the concentrations described above. The DETC-Me SO or DDTC-Me SO was dissolved in ethanol and the incubations carried out for one hour. Control incubations contained ethanol alone.\n4. Aldehyde Dehydrogenase Analysis. At the end of the incubation, the mitochondria were isolated by centrifugation, resuspended in 0.25M sucrose buffer and solubilized with deoxycholate. Low Km ALDH activity was determined by the method of S.O.C. Tottmar et al., cited above."}, "[5]": {"system": "liver mitochondrial low Km ALDH", "settings": "Hart et al.; cited from earlier work"}}, "note": "Where two headings read alike, the source gives them in different places.", "data": [{"smiles": "CCN(CC)C(=S)SC", "note": "[DDTC-Me, diethyldithiocarbamate-methyl ester]", "values": [{"measurement": "dose at which 50% ALDH inhibition (ID50) occurred", "setting": "[1]", "result": 15.5, "unit": "mg/kg"}]}, {"smiles": "CCN(CC)C(=O)[S+](C)[O-]", "note": "(stereo not drawn) [DETC-Me SO, S-Methyl-N,N-Diethylthiolcarbamate Sulfoxide]", "values": [{"measurement": "plasma acetaldehyde", "setting": "[2]; 10.3 mg/kg IP in polyethylene glycol 200, then 1 g/kg ethanol (20% v/v) IP, FIG. 5", "result": "approximately 900 μM"}, {"measurement": "effect on plasma acetaldehyde after an ethanol challenge (in words)", "setting": "[2]; 10.3 mg/kg IP, 1 g/kg ethanol IP", "result": "markedly increase plasma acetaldehyde"}, {"measurement": "in vivo ALDH inhibition relative to comparators (in words)", "setting": "[3]", "result": "substantially more potent"}, {"measurement": "in vivo ALDH inhibition relative to comparators (in words)", "setting": "[3]; listed as DETC-Me sulfoxide", "result": "about twice as effective"}, {"measurement": "ED50", "setting": "[3]; male rats, intraperitoneal (IP), liver taken eight hours after dosing, FIG. 4", "result": 3.6, "unit": "mg/kg"}, {"measurement": "in vitro activity as inhibitor of low Km ALDH (in words)", "setting": "[4]", "result": "extremely potent inhibitor"}, {"measurement": "in vitro activity as inhibitor of low Km ALDH (in words)", "setting": "[4]; listed as DETC-Me sulfoxide", "result": "active in vitro"}]}, {"smiles": "CCN(CC)C(=O)SC", "note": "[DETC-Me, S-Methyl-N,N-Diethylthiolcarbamate]", "values": [{"measurement": "in vitro inhibition of liver mitochondrial low Km ALDH (in words)", "setting": "[5]", "result": "not an effective in vitro inhibitor"}, {"measurement": "ED50", "setting": "[3]; ip", "result": 6.5, "unit": "mg/kg"}, {"measurement": "inhibition at 200 µM", "setting": "[4]; 1 h, read-out: inhibition of rat liver mitochondrial low Km ALDH", "result": 8, "unit": "%"}, {"measurement": "in vitro activity as inhibitor of low Km ALDH (in words)", "setting": "[4]", "result": "not"}, {"measurement": "potency as inhibitor of liver mitochondrial low Km ALDH relative to DDTC-Me, DDTC or disulfiram (in words)", "setting": "[1]", "result": "more potent inhibitor"}, {"measurement": "dose at which 50% ALDH inhibition (ID50) occurred", "setting": "[1]", "result": 6.5, "unit": "mg/kg"}]}, {"smiles": "CCN(CC)C(=S)SSC(=S)N(CC)CC", "note": "[disulfiram, tetraethylthiuram disulfide]", "values": [{"measurement": "dose at which 50% ALDH inhibition (ID50) occurred", "setting": "[1]", "result": 56.2, "unit": "mg/kg"}]}]}
